Reference: patent US7138361B2, “Herbicidal heterocycles” (E. I. du Pont de Nemours and Company, priority 2000, dated 2006)

Assays:
Assay type in all cases: in vivo
[1] = system: cocklebur (Xanthium strumarium); assay: Test B postemergence; details: 13 to 15 days
In short: (§1)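 Pre: seeded pots sprayed, chemical in non-phytotoxic solvent/surfactant mix. Post: plants 2–18 cm, 1–4 leaf, same formulation. Greenhouse 13–15 d; visual % control vs untreated, 0–100 scale.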

[2] = system: crabgrass (Digitaria sanguinalis); assay: Test B postemergence; details: 13 to 15 days
In short: as §1

[3] = system: lambsquarters (Chenopodium album); assay: Test B postemergence; details: 13 to 15 days
In short: as §1

[4] = system: wild oat (Avena fatua); assay: Test B postemergence; details: 13 to 15 days
In short: as §1

[5] = system: Nightshade; assay: Test C preemergence
[6] = system: Sunflower; assay: Test C preemergence
[7] = system: Surinam grass (Brachiaria decumbens); assay: Test C preemergence; details: for Plant response rating (0 to 100), Surinam grass: visual evaluation after 12 to 14 days
In short: (§2)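 Compounds in non-phytotoxic solvent with surfactant applied preemergence to planted seeds and postemergence to plants at 1- to 4-leaf stage (2–18 cm). Kept in greenhouse 12–14 days, then visually rated against controls on a 0 (no effect) to 100 (complete control) scale.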

[8] = system: bermudagrass (Cynodon dactylon); assay: Test C preemergence; details: for Plant response rating (0 to 100 where 0 is no effect and 100 is complete control), Bermudagrass: visual evaluation after 12 to 14 days
In short: as §2

[9] = system: cocklebur (Xanthium strumarium); assay: Test C preemergence
In short: as §2

[10] = system: common ragweed (Ambrosia elatior); assay: Test C preemergence; details: for Plant response rating (0 to 100), Ragweed, Common: visual evaluation after 12 to 14 days
In short: as §2

[11] = system: corn (Zea mays); assay: Test C preemergence; details: for Plant response rating (0 to 100), Corn: visual evaluation after 12 to 14 days
In short: as §2

[12] = system: giant foxtail (Setaria faberii); assay: Test C preemergence
In short: as §2

[13] = system: johnsongrass (Sorghum halepense); assay: Test C preemergence; details: for Plant response rating (0 to 100), Johnsongrass: visual evaluation after 12 to 14 days
In short: as §2

[14] = system: kochia (Kochia scoparia); assay: Test C preemergence; details: for Plant response rating (0 to 100), Kochia: visual evaluation after 12 to 14 days
In short: as §2

[15] = system: lambsquarters (Chenopodium album); assay: Test C preemergence; details: for Plant response rating (0 to 100), Lambsquarters: visual evaluation after 12 to 14 days
In short: as §2

[16] = system: pigweed (Amaranthus retroflexus); assay: Test C preemergence; details: for Plant response rating (0 to 100), Pigweed: visual evaluation after 12 to 14 days
In short: as §2

[17] = system: soybean (Glycine max); assay: Test C preemergence; details: for Plant response rating (0 to 100), Soybean: visual evaluation after 12 to 14 days
In short: as §2

[18] = system: velvetleaf (Abutilon theophrasti); assay: Test C preemergence; details: for Plant response rating (0 to 100), Velvetleaf: visual evaluation after 12 to 14 days
In short: as §2

[19] = system: woolly cupgrass (Eriochloa villosa); assay: Test C preemergence; details: for Plant response rating (0 to 100), Cupgrass, Woolly: visual evaluation after 12 to 14 days
In short: as §2

[20] = system: Sunflower; assay: Test C preemergence; details: visual evaluation after 12 to 14 days
[21] = Rate 125 g/ha, scale 0 (no effect) to 100 (complete control)
[22] = Rate 500 g/ha, scale 0 to 100, 0 is no effect, 100 is complete control
[23] = Rate 125 g/ha, scale 0 to 100, 0 no effect, 100 complete control
[24] = preemergence, Rate 62 g/ha, scale 0 to 100
[25] = preemergence, Rate 250 g/ha, scale 0 to 100, 0 no effect, 100 complete control
[26] = preemergence, Rate 500 g/ha, visual evaluation after 12 to 14 days
[27] = Preemergence, Rate 500 g/ha, scale 0 to 100
[28] = Rate 62 g/ha, scale 0 to 100, 0 no effect, 100 complete control
[29] = preemergence, Rate 125 g/ha, scale 0 to 100, 0 no effect, 100 complete control

CC(C)(C)c1ccn(C2CCN(c3cccc(SC(F)(F)F)c3)C2=O)n1 (stereo not shown) [Compound 93]
Plant response rating, Cocklebur [1, 21]: 30
Plant response rating, Cocklebur [1, 22]: 50
Plant response rating, Crabgrass [2, 21]: 0
Plant response rating, Crabgrass [2, 22]: 0
Plant response rating, Lambsquarters [3, 22]: 80
Plant response rating, Wild Oat [4, 22]: 0
Plant response rating, Nightshade ([5]; Rate 62 g/ha, scale 0 to 100): 0
Plant response rating, Nightshade ([5]; Rate 125 g/ha; scale 0 to 100, 0 no effect, 100 complete control): 0
Plant response rating, Nightshade ([5]; Rate 250 g/ha, scale 0 to 100, 0 no effect, 100 complete control): 0
Plant response rating, Sunflower [6, 23]: 0
Plant response rating, Surinam grass [7, 23]: 10
Plant response rating, Surinam grass [7, 24]: 0
Plant response rating (0 to 100), Surinam grass ([7]; preemergence, Rate 500 g/ha): 70
Plant response rating, Surinam grass [7, 25]: 30
Plant response rating, Bermudagrass [8, 23]: 90
Plant response rating, Bermudagrass [8, 24]: 0
Plant response rating (0 to 100 where 0 is no effect and 100 is complete control), Bermudagrass ([8]; preemergence, Rate 500 g/ha): 100
Plant response rating, Bermudagrass [8, 25]: 100
Plant response rating, Cocklebur [9, 23]: 0
Plant response rating, Cocklebur [9, 24]: 0
Plant response rating (0 to 100), Cocklebur [9, 26]: 20
Plant response rating, Cocklebur [9, 25]: 0
Plant response rating, Ragweed, Common [10, 23]: 0
Plant response rating, Ragweed, Common [10, 24]: 0
Plant response rating (0 to 100), Ragweed, Common ([10]; preemergence, Rate 500 g/ha): 0
Plant response rating, Ragweed, Common [10, 25]: 0
Plant response rating, Corn [11, 23]: 0
Plant response rating, Corn [11, 24]: 0
Plant response rating (0 to 100), Corn ([11]; preemergence, Rate 500 g/ha): 30
Plant response rating, Corn [11, 25]: 0
Plant response rating, Foxtail, Giant [12, 23]: 20
Plant response rating, Foxtail, Giant [12, 24]: 0
Plant response rating (0 to 100), Foxtail, Giant [12, 26]: 60
Plant response rating, Foxtail, Giant [12, 25]: 20
Plant response rating, Johnsongrass [13, 24]: 0
Plant response rating (0 to 100), Johnsongrass ([13]; preemergence, Rate 500 g/ha): 10
Plant response rating, Johnsongrass [13, 25]: 10
Plant response rating, Kochia [14, 23]: 0
Plant response rating, Kochia [14, 24]: 0
Plant response rating (0 to 100), Kochia ([14]; preemergence, Rate 500 g/ha): 80
Plant response rating, Kochia [14, 25]: 30
Plant response rating, Lambsquarters [15, 23]: 70
Plant response rating, Lambsquarters [15, 24]: 0
Plant response rating (0 to 100), Lambsquarters ([15]; preemergence, Rate 500 g/ha): 100
Plant response rating, Lambsquarters [15, 25]: 90
Plant response rating, Pigweed [16, 23]: 20
Plant response rating, Pigweed [16, 24]: 0
Plant response rating (0 to 100), Pigweed ([16]; preemergence, Rate 500 g/ha): 80
Plant response rating, Pigweed [16, 25]: 20
Plant response rating, Soybean [17, 23]: 0
Plant response rating, Soybean [17, 24]: 0
Plant response rating (0 to 100), Soybean ([17]; preemergence, Rate 500 g/ha): 20
Plant response rating, Soybean [17, 25]: 0
Plant response rating, Velvetleaf [18, 23]: 0
Plant response rating, Velvetleaf [18, 24]: 0
Plant response rating (0 to 100), Velvetleaf ([18]; preemergence, Rate 500 g/ha): 20
Plant response rating, Velvetleaf [18, 25]: 0
Plant response rating, Cupgrass, Woolly [19, 23]: 20
Plant response rating, Cupgrass, Woolly [19, 24]: 0
Plant response rating (0 to 100), Cupgrass, Woolly ([19]; preemergence, Rate 500 g/ha): 80
Plant response rating, Cupgrass, Woolly [19, 25]: 70
Plant response rating (0 to 100), Sunflower ([20]; Rate 500 g/ha): 20

O=C1C(n2ccc(C3CCCCC3)n2)SCN1c1cccc(C(F)(F)F)c1 (stereo not shown) [Compound 52]
Plant response rating, Cocklebur [1, 21]: 0
Plant response rating, Cocklebur [1, 22]: 0
Plant response rating, Crabgrass [2, 21]: 0
Plant response rating, Crabgrass [2, 22]: 0
Plant response rating, Lambsquarters [3, 21]: 0
Plant response rating, Lambsquarters [3, 22]: 0
Plant response rating, Wild Oat [4, 21]: 0
Plant response rating, Wild Oat [4, 22]: 0
Plant response rating, Nightshade ([5]; Rate 62 g/ha; scale 0 to 100, 0 no effect, 100 complete control): 30
Plant response rating, Nightshade [5, 23]: 30
Plant response rating, Nightshade ([5]; Rate 500 g/ha, scale 0 to 100): 50
Plant response rating, Sunflower ([6]; Rate 500 g/ha, scale 0 to 100): 50
Plant response rating, Surinam grass [7, 27]: 50
Plant response rating, Surinam grass [7, 28]: 0
Plant response rating (0 to 100), Surinam grass ([7]; preemergence, Rate 250 g/ha): 30
Plant response rating, Surinam grass [7, 29]: 20
Plant response rating, Bermudagrass [8, 27]: 100
Plant response rating, Bermudagrass [8, 28]: 100
Plant response rating (0 to 100 where 0 is no effect and 100 is complete control), Bermudagrass ([8]; preemergence, Rate 250 g/ha): 100
Plant response rating, Bermudagrass [8, 29]: 100
Plant response rating, Cocklebur [9, 27]: 30
Plant response rating, Cocklebur [9, 28]: 0
Plant response rating, Cocklebur [9, 29]: 0
Plant response rating, Ragweed, Common [10, 27]: 50
Plant response rating (0 to 100), Ragweed, Common ([10]; preemergence, Rate 250 g/ha): 40
Plant response rating, Ragweed, Common [10, 29]: 0
Plant response rating, Corn [11, 27]: 40
Plant response rating, Corn [11, 28]: 0
Plant response rating (0 to 100), Corn ([11]; preemergence, Rate 250 g/ha): 20
Plant response rating, Corn [11, 29]: 0
Plant response rating, Foxtail, Giant [12, 27]: 30
Plant response rating, Foxtail, Giant [12, 28]: 60
Plant response rating, Foxtail, Giant [12, 29]: 70
Plant response rating, Johnsongrass [13, 27]: 100
Plant response rating, Johnsongrass [13, 28]: 0
Plant response rating (0 to 100), Johnsongrass ([13]; preemergence, Rate 250 g/ha): 90
Plant response rating, Johnsongrass [13, 29]: 40
Plant response rating, Kochia [14, 27]: 60
Plant response rating, Kochia [14, 28]: 0
Plant response rating (0 to 100), Kochia ([14]; preemergence, Rate 250 g/ha): 30
Plant response rating, Kochia [14, 29]: 20
Plant response rating, Lambsquarters [15, 27]: 100
Plant response rating, Lambsquarters [15, 28]: 0
Plant response rating (0 to 100), Lambsquarters ([15]; preemergence, Rate 250 g/ha): 100
Plant response rating, Lambsquarters [15, 29]: 80
Plant response rating, Pigweed [16, 27]: 100
Plant response rating (0 to 100), Pigweed ([16]; preemergence, Rate 250 g/ha): 30
Plant response rating, Pigweed [16, 29]: 0
Plant response rating, Soybean [17, 27]: 60
Plant response rating (0 to 100), Soybean ([17]; preemergence, Rate 250 g/ha): 20
Plant response rating, Soybean [17, 29]: 20
Plant response rating, Velvetleaf [18, 27]: 0
Plant response rating (0 to 100), Velvetleaf ([18]; preemergence, Rate 250 g/ha): 0
Plant response rating, Velvetleaf [18, 29]: 0
Plant response rating, Cupgrass, Woolly [19, 27]: 100
Plant response rating, Cupgrass, Woolly [19, 28]: 30
Plant response rating (0 to 100), Cupgrass, Woolly ([19]; preemergence, Rate 250 g/ha): 60
Plant response rating, Cupgrass, Woolly [19, 29]: 50
Plant response rating (0 to 100), Sunflower ([20]; Rate 250 g/ha): 0
